Test [1] has as its system HL-60 cells differentiated into neutrophil cells. The test can be described thus: ROS production induced by PMA in HL-60 cells differentiated into neutrophil cells. The test is classed as cell-based. As to conditions: Homo sapiens, 0.5 h; differentiated HL-60 cells, compounds 0.5 uM (0.5 mM in the source) for 30 minutes, 200 nM PMA, L-012 luminescence. The source says:
In order to confirm the effect of the compounds of Synthetic examples on ROS production from fibroblasts and specific substrate cells, ROS production was induced by stimulation of PMA (phorbol 12-myristate 13-acetate), TGF-β1, palmitate or high concentration-glucose, or the like, in HL-60 cells differentiated into neutrophil cells by DMSO treatment, NHLF (normal human lung fibroblast, Lonza), LX-2 (human hepatic stellate cells, Sigma), ARPE19 (human retinal pigment epithelial cell, ATCC), and KEL-FIB (Keloid fibroblast, ATCC) cells, and under this condition, the inhibitory effect of ROS production of the compounds of Synthetic Examples was observed.
HL-60 cells (human leukemia cells, ATCC) were suspended in a medium containing 1.25% DMSO (RPMI+10% FBS) and cultured under the condition of 5% CO2, 37° C. for 6 days, thereby inducing differentiation into neutrophil cells. […] Then, to each well comprising the cells and drug, 200 nM PMA was treated to induce ROS production, and such ROS production was measured by observing the luminescence level of each well using 100 μM L-012.

The test system of the next test is HFF-1 cells. Kind of test: Collagen gel contraction induced by TGF-β1 in HFF-1 cells. It is filed as cell-based, human. As to conditions: HFF-1 cells in collagen gel, TGF-β1 10 ng/ml, 72 hours, FIG. 7. The source says:
In order to confirm the effect of the compounds of Synthetic examples on differentiation of fibroblasts into myofibroblasts, the inhibitory effect of the compounds of Synthetic examples on the phenomenon of contraction of gel induced by interaction of human foreskin fibroblasts (HFF-1, ATCC) and collagen was observed.
The mixed solution of the HFF-1 cells and collagen (bovine type I collagen) prepared at a concentration of 3×10^6 cells/ml was aliquoted in a 24 well plate, respectively, and then cultured under the condition of 5% CO2, 37° C. for 1 hour to induce gel polymerization. Then, after suspending the gel attached on the plate from the plate using a spoon, a medium comprising TGF-β1 and Synthetic example compounds was added to each well. After culturing for 72 hours, the Synthetic example compounds were treated by 10, 20, 30, 40, 60 and 80 μM to measure the size of the gel, and thereby, the degree of contraction of the gel by drug treatment was confirmed.

The subject of a further test is IL-6. Kind of test: Expression of IL-6 in pancreatic cancer associated fibroblasts (ELISA). It is filed as cell-based, human. The note with it: P.CAF cells, 48 hours treatment, FIG. 5. How it is done:
(§1) In order to confirm the effect of the compounds of Synthetic examples of the present invention on inflammation reaction in cancer associated fibroblasts, whether the expression of IL6 and IL8 was inhibited by the compounds of Synthetic examples in pancreatic cancer associated fibroblasts (P.CAF) was observed.
(§2) After inoculating 1.5×10^5 cells in a 6 well plate and then culturing in P.CAF complete media for 48 hours, the compounds of Synthetic examples were treated by 10, 20, 30, 40, 60 and 80 μM for 48 hours according to each condition, and then the expression of IL-6 and IL-8 was confirmed by performing ELISA with Quantkine ELISA kit (R&D systems) as follows.
(§3) 100 μl of the culture solution in which the compounds of Synthetic examples were treated for 48 hours was added to the microplate strip for analysis including a 100 μl assay diluent and left at a room temperature for 2 hours and then the contents were removed, and then it was washed with 400 μl wash buffer 4 times. 200 μl of a human IL-6 or IL-8 conjugate was added and left at a room temperature for 2 hours and then the contents were removed, and then it was washed with 400 μl wash buffer 4 times. 200 μl of substrate solution was added and left at a room temperature for 20 minutes and then 50 μl of stop solution was added, and the absorbance at a wavelength of 450 nm was measured within 30 minutes to confirm the expression level of IL-6 and IL-8.
On the technique in general: An ELISA detects its analyte on a solid surface through an enzyme-linked reagent.

A further test relates to IL-8. The test can be described thus: Expression of IL-8 in pancreatic cancer associated fibroblasts (ELISA). The test is classed as cell-based, human. As to conditions: P.CAF cells, 48 hours treatment, FIG. 6. The protocol:
as §1, §2, §3

In test [1], `CN(Cc1ccc(F)cc1F)C1CCc2nn(-c3ccccn3)c(O)c2C1` (centres unmarked) [Compound 5, 5-[(2,4-Difluorobenzyl)methylamino]-2-(pyridin-2-yl)-4,5,6,7-tetrahydro-2H-indazol-3-ol] returned an inhibition at 0.5 µM of over 70%. Besides, the “contraction of the gel induced by TGF-β1” value in the test with HFF-1 cells is given as “effectively inhibited”. For the same molecule, the “IL-6 expressed in P.CAF” value in the test on IL-6 is given as “effectively inhibited”. In the test with IL-8, the “IL-8 expressed in P.CAF” value is on record as “effectively inhibited”. In turn, `COc1cccc(CN(C)C2CCc3nn(-c4ccccn4)c(O)c3C2)c1` (centres unmarked) [Compound 13, 5-[(3-Methoxybenzyl)methylamino]-2-(pyridin-2-yl)-4,5,6,7-tetrahydro-2H-indazol-3-ol] had an inhibition at 0.5 µM in test [1] of over 70%. Also, in the test with HFF-1 cells, the “contraction of the gel induced by TGF-β1” value is on record as “effectively inhibited”. For `Oc1c2c(nn1-c1ccccn1)CCC(N1CCCCC1)C2` (centres unmarked) [Compound 14, 5-Piperidin-1-yl-2-(pyridin-2-yl)-4,5,6,7-tetrahydro-2H-indazol-3-ol] the same measures were 50 to 70% and “effectively inhibited”. `CN(Cc1cccc(S(C)(=O)=O)c1)C1CCc2nn(-c3ccccn3)c(O)c2C1` (centres unmarked) [Compound 23, 5-[Methyl(3-methylsulfonylbenzyl)amino]-2-(pyridin-2-yl)-4,5,6,7-tetrahydro-2H-indazol-3-ol] returned an inhibition at 0.5 µM in test [1] of 50 to 70%. Also, in the test on HFF-1 cells, the “contraction of the gel induced by TGF-β1” value is “effectively inhibited”. The “IL-6 expressed in P.CAF” value with IL-6 is reported as “effectively inhibited”. The “IL-8 expressed in P.CAF” value in the test on IL-8 is reported as “effectively inhibited”.

Take `CN(C1CCc2nn(-c3ccccn3)c(O)c2C1)C1CCCc2cccnc21` (centres unmarked) [Compound 33, 5-[Methyl(5,6,7,8-tetrahydroquinolin-8-yl)amino]-2-(pyridin-2-yl)-4,5,6,7-tetrahydro-2H-indazol-3-ol]: the inhibition at 0.5 µM in test [1] is 50 to 70%. Moreover, in the test on HFF-1 cells, the “contraction of the gel induced by TGF-β1” value is on record as “effectively inhibited”. The “IL-6 expressed in P.CAF” value in the test on IL-6 was “effectively inhibited”. Also, in the test with IL-8, the “IL-8 expressed in P.CAF” value is recorded as “effectively inhibited”.

With `O=C(C1CC1)N1CCN(C2CCc3nn(-c4ccccn4)c(O)c3C2)CC1` (centres unmarked) [Compound 38, Cyclopropyl[4-(3-hydroxy-2-(pyridin-2-yl)-4,5,6,7-tetrahydro-2-indazol-5-yl)piperazin-1-yl]methanone], the inhibition at 0.5 µM in test [1] was over 70%. Further, in the test on HFF-1 cells, the “contraction of the gel induced by TGF-β1” value is reported as “effectively inhibited”. Besides, the “IL-6 expressed in P.CAF” value in the test with IL-6 was “effectively inhibited”. Besides, the “IL-8 expressed in P.CAF” value in the test on IL-8 is given as “effectively inhibited”. Molecule `CN1CCN(C2CCc3nn(-c4ccc(Cl)cc4)c(O)c3C2)CC1` (centres unmarked) [Compound 94, 2-(4-Chlorophenyl)-5-(4-methylpiperazin-1-yl)-4,5,6,7-tetrahydro-2H-indazol-3-ol] had an inhibition at 0.5 µM in test [1] of over 70%. Same read-out and setting: in the case of `CN1CCN(C2CCc3nn(-c4ccc(C(F)(F)F)cc4)c(O)c3C2)CC1` (centres unmarked) [Compound 95, 5-(4-Methylpiperazin-1-yl)-2-(4-(trifluoromethyl)phenyl)-4,5,6,7-tetrahydro-2H-indazol-3-ol] it was 50 to 70%; in that of `Oc1c2c(nn1-c1ccccn1)CCC(N1CCCC1)C2` (centres unmarked) [Compound 96, 2-(Pyridin-2-yl)-5-(pyrrolidin-1-yl)-4,5,6,7-tetrahydro-2H-indazol-3-ol], 50 to 70%. Same read-out and setting: the result for `C=CC(=O)N1CCN(C2CCc3nn(-c4ccccn4)c(O)c3C2)CC1` (centres unmarked) [Compound 97, 1-(4-(3-Hydroxy-2-(pyridin-2-yl)-4,5,6,7-tetrahydro-2H-indazol-5-yl)piperazin-1-yl)prop-2-en-1-one] reads 50 to 70%. The same measure, in the same setting: the result for `CN(C)C/C=C/C(=O)N1CCN(C2CCc3nn(-c4ccccn4)c(O)c3C2)CC1` (centres unmarked) [Compound 98, (E)-4-(dimethylamino)-1-(4-(3-hydroxy-2-(pyridin-2-yl)-4,5,6,7-tetrahydro-2H-indazol-5-yl)piperazin-1-yl)but-2-en-1-one] reads 50 to 70%; that for `CN(C)C/C=C/C(=O)N(C)C1CCc2nn(-c3ccccn3)c(O)c2C1` (centres unmarked) [Compound 99, (E)-4-(dimethylamino)-N-(3-hydroxy-2-(pyridin-2-yl)-4,5,6,7-tetrahydro-2H-indazol-5-yl)-N-methylbut-2-enamide], 50 to 70%. In test [1], `CCCN1CCN(C2CCc3nn(-c4ccccn4)c(O)c3C2)CC1` (centres unmarked) [Compound 100, 5-(4-Propylpiperazin-1-yl)-2-(pyridin-2-yl)-4,5,6,7-tetrahydro-2H-indazol-3-ol] had an inhibition at 0.5 µM of 50 to 70%.

In the case of `CN1CCN(C2CCc3nn(-c4ccc(F)cc4)c(O)c3C2)CC1` (centres unmarked) [Compound 102, 2-(4-Fluorophenyl)-5-(4-methylpiperazin-1-yl)-4,5,6,7-tetrahydro-2H-indazol-3-ol], in test [1], the inhibition at 0.5 µM was over 70%. The same measure, in the same setting: in the case of `CN1CCN(C2CCc3nn(-c4ccc(C#N)cc4)c(O)c3C2)CC1` (centres unmarked) [Compound 103, 4-(3-Hydroxy-5-(4-methylpiperazin-1-yl)-4,5,6,7-tetrahydro-2H-indazol-2-yl)benzonitrile] it was over 70%. The same measure, in the same setting: the result for `Oc1c2c(nn1-c1ccccn1)CCC(N1CCN(CCc3ccccc3)CC1)C2` (centres unmarked) [Compound 104, 5-(4-Penethylpiperazin-1-yl)-2-(pyridin-2-yl)-4,5,6,7-tetrahydro-2H-indazol-3-ol] reads 50 to 70%; that for `Oc1c2c(nn1-c1ccccn1)CCC(N1CCN(Cc3ccccc3)CC1)C2` (centres unmarked) [Compound 105, 5-(4-Benzylpiperazin-1-yl)-2-(pyridin-2-yl)-4,5,6,7-tetrahydro-2H-indazol-3-ol], over 70%; that for `Oc1c2c(nn1-c1ccccn1)CCC(N1CCN(CC3CCCCC3)CC1)C2` (centres unmarked) [Compound 106, 5-(4-(Cyclohexylmethyl)piperazin-1-yl)-2-(pyridin-2-yl)-4,5,6,7-tetrahydro-2H-indazol-3-ol], over 70%. Still for that read-out and setting: the result for `Oc1c2c(nn1-c1ccccn1)CCC(N1CCN(CCCc3ccccc3)CC1)C2` (centres unmarked) [Compound 107, 5-(4-(3-Phenylpropyl)piperazin-1-yl)-2-(pyridin-2-yl)-4,5,6,7-tetrahydro-2H-indazol-3-ol] reads over 70%; that for `CN1CCN(C2CCc3nn(-c4ncccn4)c(O)c3C2)CC1` (centres unmarked) [Compound 108, 5-(4-Methylpiperazin-1-yl)-2-(pyrimidin-2-yl)-4,5,6,7-tetrahydro-2H-indazol-3-ol], over 70%; that for `Cc1ccc(N2CCN(C3CCc4nn(-c5ccccn5)c(O)c4C3)CC2)cc1` (centres unmarked) [Compound 126, 2-(Pyridin-2-yl)-5-(4-(p-tolyl)piperazin-1-yl)-4,5,6,7-tetrahydro-2H-indazol-3-ol], over 70%. With `COc1ccc(N2CCN(C3CCc4nn(-c5ccccn5)c(O)c4C3)CC2)cc1` (centres unmarked) [Compound 129, 5-(4-(4-Methoxyphenyl)piperazin-1-yl)-2-(pyridin-2-yl)-4,5,6,7-tetrahydro-2H-indazol-3-ol], the inhibition at 0.5 µM in test [1] was over 70%. As for `CC(=O)c1ccc(N2CCN(C3CCc4nn(-c5ccccn5)c(O)c4C3)CC2)cc1` (centres unmarked) [Compound 130, 1-(4-(4-(3-Hydroxy-2-(pyridin-2-yl)-4,5,6,7-tetrahydro-2H-indazol-5-yl)piperazin-1-yl)phenyl)ethan-1-one], the inhibition at 0.5 µM in test [1] was over 70%. On the same count and under the same terms, the result for `CS(=O)(=O)c1ccc(N2CCN(C3CCc4nn(-c5ccccn5)c(O)c4C3)CC2)cc1` (centres unmarked) [Compound 131, 5-(4-(4-(Methylsulfonyl)phenyl)piperazin-1-yl)-2-(pyridin-2-yl)-4,5,6,7-tetrahydro-2H-indazol-3-ol] reads over 70%.

Usually inhibition stands for the change of the read-out against control, counted positive when it falls. Read a high inhibition as a response far below the control.

The values are drawn from patent publication US11999718B2, “Pyrazole derivatives” (Aptabio Therapeutics Inc., priority 2021, dated 2024).
